# Data from PubChem BioAssay AID1963443 (Molecular Pharmacology Branch, DTP, NCI, 2024).
# System: MDA-MB-231 complex spheroids, growth inhibition
# Test: Anticancer human tumor MDA-MB-231 cell line growth inhibition [Asc];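 further: spheroids exposed to compounds for 7 days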
# Conditions: for IC50: curve of first compound; for viability, T/C: stronger effect = lower value
# Procedure, shortened: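 Concentration series start at each agent's clinical Cmax, or at 10 microM when none is established, and drop in half-log steps; agents are applied alone or together to complex spheroids built with HUVEC and hMSC.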
structure (smiles),measurement,setting,value
NC1CCC(NC2CC2c2ccccc2)CC1 (stereo not given) + CNC(C)C(=O)NC1CN(S(=O)(=O)c2cccc(S(=O)(=O)N3CCC4CCC(C(=O)NC(c5ccccc5)c5ccccc5)N4C(=O)C(NC(=O)C(C)NC)C3)c2)CCC2CCC(C(=O)NC(c3ccccc3)c3ccccc3)N2C1=O,IC50,second compound 0.01 µM,< 0.316 nM
same,IC50,second compound 0.0316 µM,< 0.316 nM
same,IC50,second compound 0.1 µM,< 0.316 nM
same,IC50,second compound 0.316 µM,< 0.316 nM
same,IC50,second compound 1 µM,< 0.316 nM
same,"viability, T/C","second compound 0.01 µM, first compound 0.000316 µM",4.48%
same,"viability, T/C","second compound 0.01 µM, first compound 0.001 µM",3.37%
same,"viability, T/C","second compound 0.01 µM, first compound 0.00316 µM",3.36%
same,"viability, T/C","second compound 0.01 µM, first compound 0.01 µM",4.1%
same,"viability, T/C","second compound 0.01 µM, first compound 0.0316 µM",4.51%
same,"viability, T/C","second compound 0.01 µM, first compound 0.1 µM",3.46%
same,"viability, T/C","second compound 0.0316 µM, first compound 0.000316 µM",1.91%
same,"viability, T/C","second compound 0.0316 µM, first compound 0.001 µM",3.37%
same,"viability, T/C","second compound 0.0316 µM, first compound 0.00316 µM",2.61%
same,"viability, T/C","second compound 0.0316 µM, first compound 0.01 µM",2.96%
same,"viability, T/C","second compound 0.0316 µM, first compound 0.0316 µM",2.47%
same,"viability, T/C","second compound 0.0316 µM, first compound 0.1 µM",2.27%
same,"viability, T/C","second compound 0.1 µM, first compound 0.000316 µM",2.48%
same,"viability, T/C","second compound 0.1 µM, first compound 0.001 µM",2.67%
same,"viability, T/C","second compound 0.1 µM, first compound 0.00316 µM",3.07%
same,"viability, T/C","second compound 0.1 µM, first compound 0.01 µM",2.19%
same,"viability, T/C","second compound 0.1 µM, first compound 0.0316 µM",2.11%
same,"viability, T/C","second compound 0.1 µM, first compound 0.1 µM",2.38%
same,"viability, T/C","second compound 0.316 µM, first compound 0.000316 µM",1.42%
same,"viability, T/C","second compound 0.316 µM, first compound 0.001 µM",3.18%
same,"viability, T/C","second compound 0.316 µM, first compound 0.00316 µM",2.55%
same,"viability, T/C","second compound 0.316 µM, first compound 0.01 µM",0.99%
same,"viability, T/C","second compound 0.316 µM, first compound 0.0316 µM",1.23%
same,"viability, T/C","second compound 0.316 µM, first compound 0.1 µM",0.81%
same,"viability, T/C","second compound 1 µM, first compound 0.000316 µM",1.08%
same,"viability, T/C","second compound 1 µM, first compound 0.001 µM",1.04%
same,"viability, T/C","second compound 1 µM, first compound 0.00316 µM",1.62%
same,"viability, T/C","second compound 1 µM, first compound 0.01 µM",0.85%
same,"viability, T/C","second compound 1 µM, first compound 0.0316 µM",0.86%
same,"viability, T/C","second compound 1 µM, first compound 0.1 µM",0.84%
